According to ChEMBL document CHEMBL1145507, “X-ray structural analysis of Plasmodium falciparum enoyl acyl carrier protein reductase as a pathway toward the optimization of triclosan antimalarial efficacy” (J Biol Chem, 2007):

What was measured:
[1] = target: T1, Enoyl-acyl-carrier protein reductase (Plasmodium falciparum, UniProt Q965D5); experiment: Inhibition of Plasmodium falciparum ENR
T1 sequence (Q965D5 whole entry): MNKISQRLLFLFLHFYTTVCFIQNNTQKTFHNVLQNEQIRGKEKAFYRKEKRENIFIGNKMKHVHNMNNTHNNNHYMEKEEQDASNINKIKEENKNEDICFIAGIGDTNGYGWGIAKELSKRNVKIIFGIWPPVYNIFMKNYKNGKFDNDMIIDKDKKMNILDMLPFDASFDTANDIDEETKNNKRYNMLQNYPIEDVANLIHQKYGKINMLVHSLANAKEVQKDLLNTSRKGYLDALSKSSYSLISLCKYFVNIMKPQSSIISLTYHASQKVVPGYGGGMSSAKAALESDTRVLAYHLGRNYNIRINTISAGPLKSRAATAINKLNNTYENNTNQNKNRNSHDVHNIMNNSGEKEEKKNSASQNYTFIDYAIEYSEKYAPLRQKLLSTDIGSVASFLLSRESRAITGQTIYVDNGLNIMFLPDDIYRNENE

Plasmodium falciparum [2] = experiment: Antimalarial activity against Plasmodium falciparum Dd2 by reduced [3H]hypoxanthine uptake; type: functional, organism-based
Plasmodium falciparum [3] = experiment: Antimalarial activity against Plasmodium falciparum 3D7 by reduced [3H]hypoxanthine uptake; type: functional, organism-based
Plasmodium falciparum [4] = experiment: Antimalarial activity against Plasmodium falciparum 3D7; type: functional, organism-based
Plasmodium falciparum [5] = experiment: Antimalarial activity against Plasmodium falciparum Dd2; type: functional, organism-based
Plasmodium falciparum [6] = experiment: Antimalarial activity against Plasmodium falciparum Dd2 expressing katG; type: functional, organism-based
Plasmodium falciparum [7] = experiment: Antimalarial activity against Plasmodium falciparum 3D7 expressing katG; type: functional, organism-based

| Structure (SMILES) | IC50 [1] [µM] | EC50 (Plasmodium falciparum [2]) [µM] | EC50 (Plasmodium falciparum [3]) [µM] | IC50 (Plasmodium falciparum [4]) [µM] | IC50 (Plasmodium falciparum [5]) [µM] | IC50 (Plasmodium falciparum [6]) [µM] | IC50 (Plasmodium falciparum [7]) [µM] |
| --- | --- | --- | --- | --- | --- | --- | --- |
| O=C(O)c1ccc(Oc2ccc(Cl)cc2Cl)c(O)c1 | > 100 | > 100 | > 100 | – | – | – | – |
| Oc1cc(Cc2cccnc2)ccc1Oc1ccc(Cl)cc1Cl | 0.84 | 11 | 6.9 | – | – | – | – |
| Cc1ccc(Oc2ccc(Cl)cc2Cl)c(O)c1 | 0.2 | 14 | 10 | – | – | – | – |
| CCCCc1ccc(Oc2ccc(Cl)cc2Cl)c(O)c1 | 0.48 | 3.2 | 3.5 | – | – | – | – |
| N#Cc1ccc(Oc2ccc(Cl)cc2Cl)c(O)c1 | 0.049 | 22 | 19 | – | – | – | – |
| Cc1ccccc1-c1ccc(Oc2ccc(C#N)cc2Cl)c(O)c1 | 0.41 | 3.3 | 2.6 | – | – | – | – |
| Cc1ccc(-c2ccc(Oc3ccc(Cl)cc3Cl)c(O)c2)cc1 | 0.19 | 4.3 | 2.9 | – | – | – | – |
| Cc1ccccc1-c1ccc(Oc2ccc(Cl)cc2Cl)c(O)c1 | 0.44 | 2.5 | 1.6 | – | – | – | – |
| Cc1cccc(-c2ccc(Oc3ccc(Cl)cc3Cl)c(O)c2)c1 | 0.23 | 6.1 | 3.5 | – | – | – | – |
| Oc1cc(-c2ccc(F)cc2)ccc1Oc1ccc(Cl)cc1Cl | 0.038 | 3.1 | 2.1 | – | – | – | – |
| N#Cc1ccc(Oc2ccc(-c3ccccn3)cc2O)c(Cl)c1 | 0.7 | 12 | 8.1 | – | – | – | – |
| Oc1cc(Cc2ccccc2)ccc1Oc1ccc(Cl)cc1Cl | 0.071 | 12 | 11 | – | – | – | – |
| N#Cc1ccc(Oc2ccc(-c3ccncc3)cc2O)c(Cl)c1 | 2.8 | 11 | 11 | – | – | – | – |
| Oc1cc(CCCc2ccccc2)ccc1Oc1ccc(Cl)cc1Cl | 0.44 | 7.2 | 6.4 | – | – | – | – |
| NC(=O)c1ccc(Oc2ccc(Cl)cc2Cl)c(O)c1 | 21 | 45 | 40 | – | – | – | – |
| Oc1cc(-c2nn[nH]n2)ccc1Oc1ccc(Cl)cc1Cl | > 100 | > 100 | > 100 | – | – | – | – |
| Oc1cc(CC2CCCCC2)ccc1Oc1ccc(Cl)cc1Cl | 0.53 | 4.8 | 3.4 | – | – | – | – |
| N#Cc1ccc(Oc2ccc(Cc3ccncc3)cc2O)c(Cl)c1 | 0.53 | 13 | 7.4 | – | – | – | – |
| NNC(=O)c1ccncc1 [ISONIAZID] | – | – | – | 1200 | 1800 | 1800 | 1200 |
| Oc1cc(Cl)ccc1Oc1ccc(Cl)cc1Cl [TRICLOSAN] | – | 3.8 | 2.8 | – | – | – | – |

More lines, main results first:

| IC50 [1] [µM] | EC50 (Plasmodium falciparum [2]) [µM] | EC50 (Plasmodium falciparum [3]) [µM] | Structure (SMILES) | IC50 (Plasmodium falciparum [4]) [µM] | IC50 (Plasmodium falciparum [5]) [µM] | IC50 (Plasmodium falciparum [6]) [µM] | IC50 (Plasmodium falciparum [7]) [µM] |
| --- | --- | --- | --- | --- | --- | --- | --- |
| 0.21 | 3 | 2.5 | CCCc1ccc(Oc2ccc(Cl)cc2Cl)c(O)c1 | – | – | – | – |
| 33 | 39 | 23 | Oc1cc(-c2cccnc2)ccc1Oc1ccc(Cl)cc1Cl | – | – | – | – |
| 0.29 | 2.9 | 2 | CCC(C)Cc1ccc(Oc2ccc(Cl)cc2Cl)c(O)c1 (configuration not stated) | – | – | – | – |
| 0.14 | 3.9 | 2.3 | Oc1cc(-c2ccccc2)ccc1Oc1ccc(Cl)cc1Cl | – | – | – | – |
| 0.12 | 8 | 7.4 | CC(C)CCc1ccc(Oc2ccc(Cl)cc2Cl)c(O)c1 | – | – | – | – |
| 0.18 | 2.8 | 2 | CC(C)Cc1ccc(Oc2ccc(Cl)cc2Cl)c(O)c1 | – | – | – | – |
| 0.64 | 13 | 7.5 | Oc1cc(Cc2ccccn2)ccc1Oc1ccc(Cl)cc1Cl | – | – | – | – |
| 0.076 | 11 | 5.6 | Oc1cc(CCc2ccccc2)ccc1Oc1ccc(Cl)cc1Cl | – | – | – | – |
| 0.11 | 6 | 4.6 | CCc1ccc(Oc2ccc(Cl)cc2Cl)c(O)c1 | – | – | – | – |
